The values below are quoted from earlier work in patent US20020103221A1, “Use of growth hormone secretagogues for improvement of functional health status” (priority 2000, published 2002).

Non-standard residues stand in square brackets, D forms with d. Residues, ends and D or L forms follow the SMILES beside them. d2Nal = N[C@H](Cc1ccc2ccccc2c1)C(=O)O; Aib = CC(C)(N)C(=O)O

Data set [1] has as its system markers of bone formation and bone resorption. To be noted: obese young males.
For data set [2], the system named is serum insulin-like growth factor-I; quadriceps muscle. To be noted: canines, during remobilization.
For data set [3] the following is noted: adult female rats.
For data set [4] the following is noted: GH-deficient adults.

Regarding `CC(C)(N)C(=O)N[C@H](COCc1ccccc1)C(=O)N1CCC2(CC1)CN(S(C)(=O)=O)c1ccccc12` [MK-0677], the “markers of bone formation and bone resorption” value in data set [1] was “increases”. In addition, in data set [2], the “levels of serum insulin-like growth factor-I” value is on record as “elevated”; the “size and strength of the quadriceps muscle” value was “increased”.
Turning to `CC(C)(N)C(=O)N[C@@H](Cc1c[nH]cn1)C(=O)N[C@H](Cc1ccc2ccccc2c1)C(=O)N[C@H](Cc1ccccc1)C(=O)N[C@@H](CCCCN)C(N)=O` [ipamorelin] (H-[Aib]H[d2Nal][dF]K-NH2), the bone mass result in data set [3] is listed as “capacity to increase bone mass”.
Consider GHRP-6, for which, in data set [3], the bone mass entry is “capacity to increase bone mass”.
As for “growth hormone: growth hormone replacement given to GH-deficient adults”, the self-perceived well-being result in data set [4] is on record as “significant improvements”.
